In PubChem BioAssay (NCI):
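All cell lines were grown in 96-well plates and treated with compound for 48 hours. At the GI50, growth is halved. Definition used: TGI = concentration required for complete inhibition of growth.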

Key:
Assay in all cases: growth of human tumour cells (NCI), 48 h
[1] = test system: SNB-19 CNS
[2] = test system: T-47D breast
[3] = test system: TK-10 renal
[4] = test system: OVCAR-3 ovarian
[5] = test system: ACHN renal
[6] = test system: M14 melanoma
[7] = test system: A549 NSCLC
[8] = test system: MOLT-4 leukemia
[9] = test system: LOX IMVI melanoma
[10] = test system: SR leukemia

Row | SMILES | TGI [1] [µM] | TGI [2] [µM] | TGI [3] [µM] | TGI [4] [µM] | TGI [5] [µM] | TGI [6] [µM] | TGI [7] [µM] | TGI [8] [µM] | TGI [9] [µM] | TGI [10] [µM] | GI50 [10] [µM] | GI50 [2] [µM] | GI50 [3] [µM] | GI50 [4] [µM] | GI50 [5] [µM] | GI50 [6] [µM] | GI50 [7] [µM] | GI50 [8] [µM] | GI50 [9] [µM]
1 | CCCCn1cnc2c(c(CC#N)nn2-c2ccccc2)c1=N | > 100 | > 100 | > 100 | > 100 | > 100 | > 100 | > 100 | > 100 | > 100 | – | – | – | – | – | – | – | – | – | –
2 | CCN1CCCC(NCc2c3ccccc3c(CNC3CCCN(CC)C3)c3ccccc23)C1 (stereo unspecified) | 65.8 | – | – | 26.1 | – | – | > 100 | 14.8 | 22.3 | – | – | – | – | – | – | – | – | – | –
3 | Nc1nc(N)c(N=O)c(Nc2ccc(Br)cc2)n1 | > 100 | – | 70.4 | 79.3 | 49.3 | 52.8 | > 100 | – | 66.5 | > 100 | – | – | – | – | – | – | – | – | –
4 | N#CC(N=Nc1ccc(Cl)cc1)c1nc2ccccc2o1 (stereo unspecified) | > 100 | > 100 | > 100 | > 100 | > 100 | > 100 | > 100 | > 100 | – | > 100 | – | – | – | – | – | – | – | – | –
5 | O=C(Nc1ccccc1F)c1cc2ccc(O)cc2oc1=Nc1ccccc1F | 18.6 | 4.63 | – | 3.83 | 5.3 | 5.57 | 5.89 | 6.11 | 4.16 | 5.37 | – | – | – | – | – | – | – | – | –
6 | CC1CN=C(N(C(=O)Nc2ccc(F)c(Cl)c2)c2ccccc2)S1 (stereo unspecified) | > 100 | > 100 | 68.4 | > 100 | 87.9 | 75.5 | 92.1 | 62.2 | 32.5 | – | – | – | – | – | – | – | – | – | –
7 | CC(C(=O)N1C(=O)N(C(=O)C(C)C(O)c2ccccc2)C2CCCCC21)C(O)c1ccccc1 (stereo unspecified) | > 100 | – | > 100 | > 100 | > 100 | > 100 | > 100 | 87.1 | > 100 | > 100 | – | – | – | – | – | – | – | – | –
8 | COc1cc2cc(Oc3ccc(NC(=O)c4cc(C(F)(F)F)cc(C(F)(F)F)c4)cc3)c(C)nc2cc1OC | – | > 50 | > 50 | > 50 | > 50 | > 50 | > 50 | > 50 | > 50 | > 50 | 4.8 | 2.24 | 3.82 | 1.96 | 2.27 | 3.23 | 3.08 | 3.71 | 47
9 | N=C(N)c1ccc(-c2ccc(-c3cccs3)s2)cc1 | – | – | 2.91 | – | 3.14 | – | – | – | – | – | – | – | 1.4 | – | 1.7 | – | – | – | –
10 | Cc1ccc([N+](=O)[O-])cc1N=NC(=O)NNc1cc([N+](=O)[O-])ccc1C | > 100 | > 100 | – | 39.9 | – | 53.5 | – | 41 | – | > 100 | – | – | – | – | – | – | – | – | –
11 | COc1cc2c(cc1OC)[C@H]1CN3CCC[C@H]3C=C1c1ccc(OC)c(O)c1-2 | – | 0.132 | 0.114 | – | 0.0154 | 0.000985 | – | – | 0.000604 | 0.00437 | – | – | – | – | – | – | – | – | –
12 | O=C(NC(COC(=O)C(Cc1ccccc1)NC(=O)c1ccccc1)Cc1ccccc1)c1ccccc1 (stereo unspecified) | > 50 | – | > 50 | > 50 | > 50 | > 50 | > 50 | > 50 | – | > 50 | – | – | – | – | – | – | – | – | –
13 | CSC(=Nc1ccccc1)N(c1ccccc1)c1nc(=[N+](C)C)ss1 | 15.4 | – | 27.7 | 4.83 | 16.9 | 2.5 | 33.7 | 7.54 | 12.7 | 8.01 | – | – | – | – | – | – | – | – | –
14 | CC(C)(C)OC(=O)NCCC(N)=S | > 100 | > 100 | > 100 | > 100 | > 100 | > 100 | > 100 | > 100 | – | > 100 | – | – | – | – | – | – | – | – | –
15 | Nc1nc(Cl)cc(NCC2(CO)CCC(CCc3ccccc3)C2)n1 (stereo unspecified) | 31.3 | 30.6 | 48.9 | 28.9 | 29.9 | 27.8 | 32 | 11.7 | 26.3 | – | – | – | – | – | – | – | – | – | –
16 | Oc1[nH]c2ccc(Br)cc2c1N=NC(=S)Nc1ccc(F)cc1 | – | 35.4 | 23.8 | 29 | 18 | – | – | 29.6 | 27.1 | 12.2 | – | – | – | – | – | – | – | – | –
17 | Cc1ccc(OCCn2cc(Nc3ccccc3)c(=O)n(CCOc3ccc(C)cc3)c2=O)cc1 | > 100 | > 100 | > 100 | > 100 | > 100 | > 100 | > 100 | > 100 | > 100 | – | – | – | – | – | – | – | – | – | –
18 | CC(=O)Oc1cc(C(F)(F)F)ccc1C(=O)OC1(C)OC(=O)c2ccc(C(F)(F)F)cc2O1 (stereo unspecified) | > 100 | > 100 | > 100 | > 100 | > 100 | > 100 | > 100 | > 100 | > 100 | – | – | – | – | – | – | – | – | – | –
19 | CC(C)=CCC/C(C)=C/COC(C)(C)C1=CCC(C)CC1 (stereo unspecified) (tested in a mixture with another compound) | > 100 | – | > 100 | > 100 | > 100 | > 100 | > 100 | 36.2 | – | 36.1 | – | – | – | – | – | – | – | – | –
20 | C=Cc1ccc(C)[n+](C[Si](C)(C)O[Si](C)(C)C[n+]2cc(C=C)ccc2C)c1 | > 100 | – | > 100 | > 100 | > 100 | > 100 | > 100 | > 100 | > 100 | > 100 | – | – | – | – | – | – | – | – | –
21 | CCC1=CC2CN3Cn4c(c(COCc5c6n(c7ccccc57)CN5CC7C=C(CC)C5C6(C(=O)OC)C7)c5ccccc54)C(C(=O)OC)(C2)C13 | > 100 | – | > 100 | > 100 | > 100 | > 100 | > 100 | > 100 | > 100 | > 100 | – | – | – | – | – | – | – | – | –
22 | CC1=C2C(=C[C@H]3[C@]4(C)CCCC(C)(C)[C@H]4CC[C@]34O[C@H]24)OC1=O | > 100 | – | > 100 | – | > 100 | > 100 | > 100 | > 100 | – | – | – | – | – | – | – | – | – | – | –
23 | C(=Nc1ccc(-c2nc3ccccc3o2)cc1)c1ccco1 | > 100 | > 100 | – | – | > 100 | > 100 | – | > 100 | > 100 | > 100 | – | – | – | – | – | – | – | – | –
